Assay results published in patent US20240400564A1 (Syndax Pharmaceuticals, Inc, priority 2021, published 2024).

Target: hERG (Homo sapiens, UniProt Q12809)
Assay: Patch clamp assay (hERG tail currents, whole-cell)

Chain of hERG (Q12809 whole entry): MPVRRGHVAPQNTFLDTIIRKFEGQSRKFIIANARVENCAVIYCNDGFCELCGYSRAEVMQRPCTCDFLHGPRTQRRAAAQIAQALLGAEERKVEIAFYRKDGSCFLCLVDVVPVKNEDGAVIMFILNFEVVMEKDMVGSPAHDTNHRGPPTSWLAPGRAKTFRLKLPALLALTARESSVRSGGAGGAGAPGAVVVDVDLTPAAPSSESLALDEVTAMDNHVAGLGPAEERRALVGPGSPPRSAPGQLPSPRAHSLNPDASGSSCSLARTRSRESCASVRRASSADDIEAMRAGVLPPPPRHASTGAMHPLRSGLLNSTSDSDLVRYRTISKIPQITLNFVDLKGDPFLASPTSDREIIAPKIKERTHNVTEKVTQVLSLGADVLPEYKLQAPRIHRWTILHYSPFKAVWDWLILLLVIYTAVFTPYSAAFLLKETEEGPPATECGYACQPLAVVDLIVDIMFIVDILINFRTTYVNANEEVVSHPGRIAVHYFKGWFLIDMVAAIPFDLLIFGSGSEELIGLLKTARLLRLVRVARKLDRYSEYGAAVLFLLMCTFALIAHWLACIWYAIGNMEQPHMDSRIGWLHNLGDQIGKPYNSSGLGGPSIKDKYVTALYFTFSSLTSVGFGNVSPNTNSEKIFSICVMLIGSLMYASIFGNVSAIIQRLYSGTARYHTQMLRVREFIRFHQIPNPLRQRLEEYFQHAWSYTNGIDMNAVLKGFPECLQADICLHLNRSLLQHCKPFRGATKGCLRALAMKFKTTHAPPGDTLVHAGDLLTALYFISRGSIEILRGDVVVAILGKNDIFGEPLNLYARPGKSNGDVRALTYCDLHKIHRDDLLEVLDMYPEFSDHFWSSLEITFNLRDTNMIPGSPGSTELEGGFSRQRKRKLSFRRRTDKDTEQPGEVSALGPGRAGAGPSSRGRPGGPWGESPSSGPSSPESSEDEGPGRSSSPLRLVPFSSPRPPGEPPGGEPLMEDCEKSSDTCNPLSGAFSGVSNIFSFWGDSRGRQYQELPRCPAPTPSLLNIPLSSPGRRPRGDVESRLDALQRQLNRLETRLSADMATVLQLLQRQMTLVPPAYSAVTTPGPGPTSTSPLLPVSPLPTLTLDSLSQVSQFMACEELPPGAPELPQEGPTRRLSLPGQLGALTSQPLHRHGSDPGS

For `CNS(=O)(=O)N[C@@H]1CC[C@@H](CN2CCC3(CC2)CN(c2ncncc2Oc2ccc(F)cc2C(=O)N(C(C)C)C(C)C)C3)OC1` [Example 143, 5-Fluoro-N,N-diisopropyl-2-((4-(7-(((2S,5R)-5-((N-methylsulfamoyl)amino)tetrahydro-2H-pyran-2-yl)methyl)-2,7-diazaspiro[3.5]nonan-2-5-yl)pyrimidin-5-yl)oxy)benzamide], the “hERG % Remaining” value (30 μM compound) was “+++ (≥66%)” and the “hERG % Remaining” value (100 μM compound) was “+++ (≥66%)”.
With `CCNS(=O)(=O)N[C@@H]1CC[C@@H](CN2CCC3(CC2)CN(c2ncncc2Oc2ccc(F)cc2C(=O)N(C(C)C)C(C)C)C3)OC1` [Example 144, 2-((4-(7-(((2S,5R)-5-((N-Ethylsulfamoyl)amino)tetrahydro-2H-pyran-2-yl)methyl)-2,7-diazaspiro[3.5]nonan-2-yl)pyrimidin-5-yl)oxy)-5-fluoro-N,N-diisopropylbenzamide] the “hERG % Remaining” value (30 μM compound) was “+++ (≥66%)”.
For `CCNS(=O)(=O)N[C@@H]1CC[C@@H](CN2CCC3(CC2)CN(c2ncncc2Oc2ccc(F)cc2C(=O)N(C(C)C)C2CC2)C3)OC1` [Example 145, N-Cyclopropyl-2-((4-(7-(((2S,5R)-5-((N-ethylsulfamoyl)amino)tetrahydro-2H-pyran-2-yl)methyl)-2,7-diazaspiro[3.5]nonan-2-yl)pyrimidin-5-yl)oxy)-5-fluoro-N-isopropylbenzamide], the “hERG % Remaining” value (30 μM compound) was “+++ (≥66%)”.
`CCNS(=O)(=O)N[C@@H]1CC[C@@H](CN2CCC3(CC2)CN(c2ncncc2Oc2ccc(F)cc2C(=O)N(CC(F)F)C(C)C)C3)OC1` [Example 147, N-(2,2-Difluoroethyl)-2-((4-(7-(((2S,5R)-5-((N-ethylsulfamoyl)amino)tetrahydro-2H-pyran-2-yl)methyl)-2,7-diazaspiro[3.5]nonan-2-yl)pyrimidin-5-yl)oxy)-5-fluoro-N-isopropylbenzamide] was tested, and the “hERG % Remaining” value (10 μM compound) was “+++ (≥66%)” and the “hERG % Remaining” value (30 μM compound) was “+++ (≥66%)”.
In the case of `CC(C)N(CC(F)F)C(=O)c1cc(F)ccc1Oc1cncnc1N1CC2(CCN(C[C@@H]3CC[C@@H](NS(=O)(=O)NCC4CC4)CO3)CC2)C1` [Example 148, 2-((4-(7-(((2S,5R)-5-((N-(Cyclopropylmethyl)sulfamoyl)amino)tetrahydro-2H-pyran-2-yl)methyl)-2,7-diazaspiro[3.5]nonan-2-yl)pyrimidin-5-yl)oxy)-N-(2,2-difluoroethyl)-5-fluoro-N-isopropylbenzamide], the “hERG % Remaining” value (30 μM compound) is reported as “+++ (≥66%)”.
For `CC(C)N(CC(F)F)C(=O)c1cc(F)ccc1Oc1cncnc1N1CC2(CCN(C[C@@H]3CC[C@@H](NS(=O)(=O)NC4CC4)CO3)CC2)C1` [Example 149, 2-((4-(7-(((2S,5R)-5-((N-Cyclopropylsulfamoyl)amino)tetrahydro-2H-pyran-2-yl)methyl)-2,7-diazaspiro[3.5]nonan-2-yl)pyrimidin-5-yl)oxy)-N-(2,2-difluoroethyl)-5-fluoro-N-isopropylbenzamide], the “hERG % Remaining” value (30 μM compound) was “+++ (≥66%)”.
With `CCNS(=O)(=O)N[C@@H]1CC[C@@H](CN2CCC3(CC2)CN(c2ncncc2Oc2ccc(F)cc2C(=O)N(CC(F)(F)F)C(C)C)C3)OC1` [Example 153, 2-((4-(7-(((2S,5R)-5-((N-Ethylsulfamoyl)amino)tetrahydro-2H-pyran-2-yl)methyl)-2,7-diazaspiro[3.5]nonan-2-yl)pyrimidin-5-yl)oxy)-5-fluoro-N-isopropyl-N-(2,2,2-trifluoroethyl)benzamide] the “hERG % Remaining” value (30 μM compound) was “+++ (≥66%)”.
For `CNS(=O)(=O)N[C@@H]1CC[C@@H](CN2CCC3(CC2)CN(c2ncncc2Oc2ccc(F)cc2C(=O)N(C(C)C)C2CC(F)(F)C2)C3)OC1` [Example 154, N-(3,3-Difluorocyclobutyl)-5-fluoro-N-isopropyl-2-((4-(7-(((2S,5R)-5-((N-methylsulfamoyl)amino)tetrahydro-2H-pyran-2-yl)methyl)-2,7-diazaspiro[3.5]nonan-2-yl)pyrimidin-5-yl)oxy)benzamide], the “hERG % Remaining” value (10 μM compound) was “+++ (≥66%)” and the “hERG % Remaining” value (30 μM compound) was “++ (233% and ≤66%)”.
For `CCNS(=O)(=O)N[C@@H]1CC[C@@H](CN2CCC3(CC2)CN(c2ncncc2Oc2ccc(F)cc2C(=O)N(C(C)C)C2CC(F)(F)C2)C3)OC1` [Example 155, N-(3,3-Difluorocyclobutyl)-2-((4-(7-(((2S,5R)-5-((N-ethylsulfamoyl)amino)tetrahydro-2H-pyran-2-yl)methyl)-2,7-diazaspiro[3.5]nonan-2-yl)pyrimidin-5-yl)oxy)-5-fluoro-N-isopropylbenzamide], the “hERG % Remaining” value (10 μM compound) was “+++ (≥66%)” and the “hERG % Remaining” value (30 μM compound) was “++ (233% and ≤66%)”.
In the case of `C[C@@H]1COC[C@@H](C)N1C(=O)c1cc(F)ccc1Oc1cncnc1N1CC2(CCN(C[C@@H]3CC[C@@H](NS(=O)(=O)NCC4CC4)CO3)CC2)C1` [Example 158, (Cyclopropylmethyl)({[(3R,6S)-6-{[2-(5-{2-[(3R,5R)-3,5-dimethylmorpholine-4-carbonyl]-4-fluorophenoxy}pyrimidin-4-yl)-2,7-diazaspiro[3.5]nonan-7-yl]methyl}oxan-3-yl]sulfamoyl})amine], the “hERG % Remaining” value (30 μM compound) is reported as “+++ (≥66%)”.
`C[C@@H]1COC[C@H](C)N1C(=O)c1cc(F)ccc1Oc1cncnc1N1CC2(CCN(C[C@@H]3CC[C@@H](NS(=O)(=O)N4CCC4)CO3)CC2)C1` [Example 161, N-((3R,6S)-6-((2-(5-(2-((3R,5S)-3,5-Dimethylmorpholine-4-carbonyl)-4-fluorophenoxy)pyrimidin-4-yl)-2,7-diazaspiro[3.5]nonan-7-yl)methyl)tetrahydro-2H-pyran-3-yl)azetidine-1-sulfonamide] was tested, and the “hERG % Remaining” value (30 μM compound) was “+++ (≥66%)”.
For `CC(C)N(C(=O)c1cc(F)ccc1Oc1cncnc1N1CC2(CCN(C[C@@H]3CC[C@@H](NS(=O)(=O)C4CC4)CO3)CC2)C1)[C@@H]1CCOC1` [Example 164, 2-((4-(7-(((2S,5R)-5-(Cyclopropanesulfonamido)tetrahydro-2H-pyran-2-yl)methyl)-2,7-diazaspiro[3.5]nonan-2-yl)pyrimidin-5-yl)oxy)-5-fluoro-N-isopropyl-N-((R)-tetrahydrofuran-3-yl)benzamide], the “hERG % Remaining” value (10 μM compound) was “+++ (≥66%)” and the “hERG % Remaining” value (30 μM compound) was “+++ (≥66%)”.
In the case of `CCN(CC)S(=O)(=O)N[C@@H]1CC[C@@H](CN2CCC3(CC2)CN(c2ncncc2Oc2ccc(F)cc2C(=O)N(C(C)C)[C@@H]2CCOC2)C3)OC1` [Example 165, 2-((4-(7-(((2S,5R)-5-((N,N-Diethylsulfamoyl)amino)tetrahydro-2H-pyran-2-yl)methyl)-2,7-diazaspiro[3.5]nonan-2-yl)pyrimidin-5-yl)oxy)-5-fluoro-N-isopropyl-N-((R)-tetrahydrofuran-3-yl)benzamide], the “hERG % Remaining” value (10 μM compound) is reported as “+++ (≥66%)” and the “hERG % Remaining” value (30 μM compound) is reported as “++ (233% and ≤66%)”.
In the case of `CC(C)N(C(=O)c1cc(F)ccc1Oc1cncnc1N1CC2(CCN(C[C@@H]3CC[C@@H](NS(=O)(=O)N(C)C)CO3)CC2)C1)[C@@H]1CCOC1` [Example 167, 2-((4-(7-(((2S,5R)-5-((N,N-Dimethylsulfamoyl)amino)tetrahydro-2H-pyran-2-yl)methyl)-2,7-diazaspiro[3.5]nonan-2-yl)pyrimidin-5-yl)oxy)-5-fluoro-N-isopropyl-N-((R)-tetrahydrofuran-3-yl)benzamide], the “hERG % Remaining” value (30 μM compound) is reported as “+++ (≥66%)” and the “hERG % Remaining” value (100 μM compound) is reported as “+++ (≥66%)”.
`CCN(CC)S(=O)(=O)N[C@@H]1CC[C@@H](CN2CCC3(CC2)CN(c2ncncc2Oc2ccc(F)cc2C(=O)N(C(C)C)[C@H]2CCOC2)C3)OC1` [Example 175, 2-((4-(7-(((2S,5R)-5-((N,N-Diethylsulfamoyl)amino)tetrahydro-2H-pyran-2-yl)methyl)-2,7-diazaspiro[3.5]nonan-2-yl)pyrimidin-5-yl)oxy)-5-fluoro-N-isopropyl-N-((S)-tetrahydrofuran-3-yl)benzamide] was tested, and the “hERG % Remaining” value (10 μM compound) was “++ (233% and ≤66%)” and the “hERG % Remaining” value (30 μM compound) was “+ (<33%)”.
For `CC(C)N(CC#N)C(=O)c1cc(F)ccc1Oc1cncnc1N1CC2(CCN(C[C@@H]3CC[C@@H](NS(=O)(=O)N(C)C)CO3)CC2)C1` [Example 181, N-(Cyanomethyl)-2-((4-(7-(((2S,5R)-5-((N,N-dimethylsulfamoyl)amino)tetrahydro-2H-pyran-2-yl)methyl)-2,7-diazaspiro[3.5]nonan-2-yl)pyrimidin-5-yl)oxy)-5-fluoro-N-isopropylbenzamide], the “hERG % Remaining” value (30 μM compound) was “+++ (≥66%)”.
`CC(C)N(CC#N)C(=O)c1cc(F)ccc1Oc1cncnc1N1CC2(CCN(C[C@@H]3CC[C@@H](NS(=O)(=O)N4CCC4)CO3)CC2)C1` [Example 182, 2-((4-(7-(((2S,5R)-5-(Azetidine-1-sulfonamido)tetrahydro-2H-pyran-2-yl)methyl)-2,7-diazaspiro[3.5]nonan-2-yl)pyrimidin-5-yl)oxy)-N-(cyanomethyl)-5-fluoro-N-isopropylbenzamide] was tested, and the “hERG % Remaining” value (30 μM compound) was “+++ (≥66%)”.
For `CC(C)N(CCC#N)C(=O)c1cc(F)ccc1Oc1cncnc1N1CC2(CCN(C[C@@H]3CC[C@@H](NS(=O)(=O)N(C)C)CO3)CC2)C1` [Example 183, N-(2-Cyanoethyl)-2-((4-(7-(((2S,5R)-5-((N,N-dimethylsulfamoyl)amino)tetrahydro-2H-pyran-2-yl)methyl)-2,7-diazaspiro[3.5]nonan-2-yl)pyrimidin-5-yl)oxy)-5-fluoro-N-isopropylbenzamide], the “hERG % Remaining” value (30 μM compound) was “+++ (≥66%)”.
`CC(C)N(CC(F)F)C(=O)c1cc(F)ccc1Oc1nncnc1N1CC2(CCN(C[C@@H]3CC[C@@H](NS(=O)(=O)N4CCC4)CO3)CC2)C1` [Example 189, 2-((5-(7-(((2S,5R)-5-(Azetidine-1-sulfonamido)tetrahydro-2H-pyran-2-yl)methyl)-2,7-diazaspiro[3.5]nonan-2-yl)-1,2,4-triazin-6-yl)oxy)-N-(2,2-difluoroethyl)-5-fluoro-N-isopropylbenzamide] was tested, and the “hERG % Remaining” value (30 μM compound) was “+++ (≥66%)”.
For `CC(C)N(C(=O)c1cc(F)ccc1Oc1nncnc1N1CC2(CCN(C[C@@H]3CC[C@@H](NS(=O)(=O)C4CC4)CO3)CC2)C1)C(C)C` [Example 196, 2-((5-(7-(((2S,5R)-5-(Cyclopropanesulfonamido)tetrahydro-2H-pyran-2-yl)methyl)-2,7-diazaspiro[3.5]nonan-2-yl)-1,2,4-triazin-6-yl)oxy)-5-fluoro-N,N-diisopropylbenzamide], the “hERG % Remaining” value (30 μM compound) was “+++ (≥66%)”.
